# Measured values from patent US20180282279A1, “Pantothenamide Analogues” (Radboud Universitair Medisch Centrum, priority 2014, published 2018).
# pIC50: −log10 of the molar value. Where two headings read alike, the source gives them in different places.
# Columns and labels:
# [1] = test system: Staphylococcus epidermidis; assay: Bacterial growth assay and MIC determination, S. epidermidis; assay type: cell-based; conditions: Staphylococcus epidermidis
# Protocol: (§1) Strains of Escherichia coli, Staphylococcus aureus and Staphylococcus epidermidis, were grown overnight in 1% Bacto tryptone medium (BD, Sparks, Md.). Streptococcus pyogenes was grown overnight in Bacto Todd Hewitt Broth medium (BD, Sparks, Md.). Cultures were then diluted 1:1,000 in fresh assay medium supplemented with or without 20% fetal bovine serum (FBS; HyClone, Celbio, Logan, Utah) and added to 96-well sterile enzyme-linked immunosorbent assay (ELISA) plates (100 μl per well). The compounds to be tested were diluted in the medium without serum and added to the bacteria (100 μl per well). Plates were incubated at 37° C., and bacterial growth was monitored over time by reading the optical density at 490 nm using a microplate reader (model 450; Bio-Rad Laboratories Inc., Hercules, Calif.). Streptococcus pneumoniae strains were grown to mid-log phase (OD620 of 0.3) and stored in 15% glycerol at […] till further use. Minimal inhibitory concentration (MIC) of antibiotics was determined according to standard procedures. Bacteria were diluted 10-fold in Mueller-Hinton medium (BD, Sparks, Md.) and added to 96-well sterile ELISA plates (150 μl per well). The compounds to be tested were diluted in the medium without serum and added to the bacteria (150 μl per well). Plates were incubated overnight at 37° C. in 5% CO2. The MIC was defined as the lowest concentration of compound at which no growth was visible with the naked eye.
# [2] = Pharmacokinetic study in rats; assay type: in vivo; conditions: rat, blood, 50 mg/kg in saline, oral administration
# Protocol: To address the question if increased stability would also lead to improved bioavailability in vivo, a pharmacokinetic study was performed. Briefly, the pantothenamides N5-Pan (an antibacterial compound) and CXP18.3-002 (an antimalarial compound), and their corresponding inverted amides CXP18.6-013 and CXP18.6-006 were administered to rats at 50 mg/kg dissolved in saline. Blood samples were collected from 3 rats before the experiment and at 0.25, 0.5, 1, 2, 4, 6, 8, 12 and 24 h. The concentrations of the compounds were analyzed by LC-MS/MS (AB Sciex API-4000 system). Data were analyzed by the Non-compartmental analysis tool of Phoenix WinNonlin (Version 6.3).
# [3] = test system: transgenic P. falciparum NF54 strain that expresses a luciferase reporter gene, in Anopheles stephensi mosquitoes; assay: Standard Membrane Feeding Assay (SMFA), luciferase reporter; assay type: in vivo, Plasmodium falciparum; conditions: for pIC50: indirect mode of the SMFA
# Protocol: To assess the effect of a reduction in gametocyte viability and or capacity to form a gamete on actual transmission of the parasites, Standard Membrane Feeding Assays (SMFA) were performed using a transgenic P. falciparum NF54 strain that expresses a luciferase reporter gene from a hsp70 promoter. Parasite cultures showing ˜3% mature gametocytes were checked for the ability to show exflagellation after addition of xanthurenic acid to a final concentration of 40 μM. Infectivity of cultures showing positive exflagellation was tested in a ‘prefeed’ experiment as described previously (Antimicrob Agents Chemother, 2012. 56(7): p. 3544-8). Cultures showing development of retorts and ookinetes in the mosquito midgut were selected for testing of compounds. In the indirect mode of the assay, gametocytes were pre-incubated with compound prior to mosquito feeding. To this end, 40 μl compound diluted in parasite culture medium was added to 360 μl of parasite culture and incubated for 24 hrs at 37° C. in Eppendorf tubes (0.1% DMSO final concentration). Hereafter, 300 μl was added to 180 μl of packed red blood cells and centrifuged for 20 seconds at 10,000 g. After carefully aspirating the supernatant, 200 μl of human serum type A was added to the pellet. Finally, 300 μl was immediately injected into an individual membrane-covered minifeeder, where 50 Anopheles stephensi mosquitoes of 1-to-5-days old were allowed to feed for 10 minutes and non-fed mosquitoes were removed from the cage. Eight days after feeding, 20 mosquitoes were sacrificed and parasite luciferase activity was measured as described previously (Stone, J Infect Dis. 2014 in press). For the direct SMFA, 300 μl parasite culture was added to 180 μl red blood cells, centrifuged for 20 seconds at 10,000 g and the supernatant was carefully aspirated. Meanwhile, 10 μl of compound diluted in incomplete medium was added to 490 μl human serum type A (0.1% DMSO final). 200 μl of this compound containing human serum was added to the pellet, which was subsequently used for the SMFA as described above. For dose response analyses, compounds were diluted in DMSO with subsequent dilution in culture medium to a final DMSO concentration of 0.1%. Controls included vehicle (0.1% DMSO) and DHA at its approximate IC90 (10 μM). Data were analyzed by logistic regression using the formula: Y=Bottom+(Top−Bottom)/(1+10̂((Log IC50−X)*HillSlope)) and a least squares method to find the best fit.
# [4] = test system: Plasmodium berghei strain 676c11 (PbGFP-Luc); assay: In vivo rodent malaria model; conditions: female Wistar rats, 100 mg/kg orally three times a day, day 5-8
# Description: Female mice (C57 Black 6, 9-10 weeks of age at the start of the experiment) and female rats (Wistar, 150-200 grams at the beginning of the experiment) were housed under standard conditions and experiments were approved by the institutional ethical committee on animal care and experimentation of Radboud University Medical Centre (Nijmegen).
# To test our compounds in an in vivo malaria model we used a well described rodent malaria model (Zuckerman and Yoeli, J Infect Dis. 94, 225-36). First, donor mice were infected by 0.2 ml cryopreserved infected blood stocks containing the transgenic Plasmodium berghei strain 676c11 (PbGFP-Luc). After four days the mice were sacrificed and their blood was collected. The parasitemia in the blood from the mice was calculated as percentage of infected red blood cells (RBC) by Giemsa-stained blood smears. Infected blood was diluted to 5×10^7 parasites per ml and 0.2 ml was i.p. injected in rats (inoculation of 10′ parasites per rat). Treatment with chloroquine (6 mg/kg), CXP18.6-017 (100 mg/kg) and CXP18.6-052 (100 mg/kg) started 5 days post inoculation and where given orally three times a day until day eight. From day 5 blood samples were collected and parasitemia was determined by analysis of Giemsa-stained blood smears. The infection and treatment regimes were well tolerated by the animals.
# [5] = test system: S. aureus (SA), S. epidermidis (SE), S. pyogenes (SP), S. pneumoniae (SPn); assay: MIC for most sensitive bacterial species (panel); assay type: cell-based; conditions: Table 1, no species named, read-out: MIC (μg/ml) for most sensitive bacterial species
# Protocol: as §1
# [6] = Table 1, most sensitive species S. epidermidis (SE), read-out: MIC (μg/ml) for most sensitive bacterial species
# [7] = 24 hrs pre-incubation, read-out: IC50 on the average luciferase intensity
# [8] = read-out: IC50 on parasite prevalence (percentage of infected mosquitoes)
compound,measurement,setting,value
CC(C)(CO)[C@@H](O)C(=O)NCCNC(=O)CCc1ccccc1 [CXP18.6-006],MIC,[1]; [6],16 µg/mL
same,AUC(0-inf),[2],6620 ng·h/mL
same,Cmax,[2],3360 ng/mL
same,Tmax,[2],0.33 h
same,half-life,[2]; elimination phase,3.6 h
CC(C)(CO)[C@@H](O)C(=O)NCCNC(=O)CCc1ccccc1F [CXP18.6-017],MIC,"[1]; S. epidermidis, serum −, read-out: MIC",32 µg/mL
same,MIC,[1]; [6],2 µg/mL
same,inhibitory effect in the indirect mode compared with the direct mode,[3]; gametocytes pre-exposed prior to mosquito feeding,stronger
same,luciferase intensity in the direct mode of the assay,[3]; in comparison with the DMSO control,reduced luciferase intensity
same,pIC50,[3]; [7],7.70
same,pIC50,[3]; [8],6.75
same,parasitemia,[4],reduced parasitemia with similar kinetics as found for chloroquine
Cc1ccc(CCC(=O)NCCNC(=O)[C@H](O)C(C)(C)CO)cc1 [CXP18.6-026],MIC,"[5]; tested for SA, SE, SP and SPn",> 32 µg/mL
same,pIC50,[3]; [7],6.97
same,pIC50,[3]; [8],6.43
CC(C)(CO)[C@@H](O)C(=O)NCCNC(=O)CCc1cccnc1 [CXP18.6-052],MIC,"[5]; Streptococcus pneumoniae, marked *: not tested for S. pneumoniae",> 32 µg/mL
same,parasitemia,[4],"significant, albeit partial, reduction of parasitemia"
